These are literature values, as cited in patent EP2698169A1, “A contrast agent-binding polypeptide and use thereof” (Universität Duisburg-Essen, priority 2012, dated 2014).

The conditions of the data set: literature [26]; conventional small molecular contrast agents.

For the compound `CNC[C@H](O)[C@@H](O)[C@H](O)[C@H](O)CO.CNC[C@H](O)[C@@H](O)[C@H](O)[C@H](O)CO.O=C([O-])CN(CCN(CC(=O)[O-])CC(=O)O)CCN(CC(=O)[O-])CC(=O)O.[Gd+3]` [DTPA-Gd^3+, gadopentetic acid], the Relaxivities entry was “below 10 s^-1mM^-1”.
With `O=C([O-])CN1CCN(CC(=O)[O-])CCN(CC(=O)O)CCN(CC(=O)[O-])CC1.[Gd+3]` [DOTA-Gd^3+], the Relaxivities result was “below 10 s^-1mM^-1”.
